A word on the CC50: it is the concentration that lowers cell viability or growth by half. Lower therefore signals greater toxicity to the cells. The EC50 is the midpoint of the concentration-response curve.

Read-outs that look alike come from different tables or passages of the source.

A short description of one data set: in vitro. As to conditions: human, HepG2 or HepG2.117 cells, mean value; for CC50 at 4 days: 4-days incubation (values marked with *). Type of data set: cell-based. The procedure, abridged: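 Luminescent ATP quantitation served as the viability endpoint following a 3- or 4-day incubation with test compounds.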
Data set [1] concerns HBV (HepG2.117 cell line, inducibly HBV producing). The data set can be described thus: Anti-HBV activity: intracellular HBV DNA by real-time PCR in HepG2.117 cells after 3 days of treatment. Type of data set: cell-based, hepatitis B virus. The procedure, abridged: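 Inducible HBV-producing HepG2.117 line (Tet-off); 3-day exposure to serially diluted compound after induction; real-time PCR of intracellular viral DNA.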

Setting [2] is: 3-days incubation (unmarked values), ATPlite.
Where [3] appears, read: Hepatitis B virus, HepG2.117, 72 h, HepG2.117 cells, 3 days of treatment, intracellular HBV DNA by real-time PCR; mean value; read-out: EC50 (μM, mean value).
[4] abbreviates: ATPlite, 3-days incubation (not marked with *).
Where [5] appears, read: Hepatitis B virus, HepG2.117, 72 h, HepG2.117 cells, intracellular HBV DNA by real-time PCR, 3 days of treatment, mean value; read-out: EC50 (μM, mean value).

Regarding `CC(C)Nc1nc2c(c(=O)n1-c1ccc(-c3nccn3C)cc1)CCN(C(=O)c1ccc(Cl)c(Cl)c1)C2` [Compound C174, 7-(3,4-dichlorobenzoyl)-3-[4-(1-methyl-1H-imidazol-2-yl)phenyl]-2-[(propan-2-yl)amino]-5,6,7,8-tetrahydropyrido[3,4-d]pyrimidin-4(3H)-one], the CC50 at 3 days in “in vitro” (setting [2]) came to 6.8 µM. Also, in data set [1] (setting [3]), the EC50 is 0.42 µM.
`CNC(=O)c1ccc(-n2c(N(C)Cc3cnn(-c4ccccc4)n3)nc3c(c2=O)C[C@@H](C)N(C(=O)c2ccc(Cl)c(Cl)c2)C3)cc1` [Compound C603] registered a cytotoxic concentration (CC50) at 3 days in the data set “in vitro” (setting [4]) of more than 50 µM. Besides, in data set [1] (setting [5]), the EC50 was 0.21 µM.
In the case of `CNC(=O)c1ccc(-n2c(NC(C)C)nc3c(c2=O)C[C@@H](C)N(C(=O)c2ccc(C(F)F)c(F)c2)C3)cc1` [Compound C500], the half-maximal cytotoxic concentration (CC50) at 3 days in “in vitro” (setting [4]) was more than 50 µM. The half-maximal effective concentration (EC50) in data set [1] (setting [5]) amounted to 0.59 µM.
For the compound `CNC(=O)c1ccc(-n2c(NC(C)C)nc3c(c2=O)C[C@@H](C)N(C(=O)c2cc(Cl)c(Br)cc2OC)C3)cc1` [Compound C521], the cytotoxic concentration (CC50) at 3 days in the data set “in vitro” (setting [4]) is more than 50 µM. Besides, the EC50 in data set [1] (setting [5]) is 7.64 µM.
Turning to `COc1ccccc1-n1c(NCc2ccccc2)nc2c(c1=O)CCN(C(=O)c1ccc(Cl)c(Cl)c1)C2` [Compound C10, 2-(benzylamino)-7-(3,4-dichlorobenzoyl)-3-(2-methoxyphenyl)-5,6,7,8-tetrahydropyrido[3,4-d]pyrimidin-4(3H)-one], the CC50 at 4 days in the data set “in vitro” (ATPlite) is more than 50 µM. The EC50 in data set [1] (setting [3]) was 6.21 µM.
On to `CC[C@@H]1Cc2c(nc(NC(C)C)n(-c3ccc(S(C)(=O)=O)cc3)c2=O)CN1C(=O)c1ccc(Cl)c(Cl)c1` (single isomer, unassigned) [Compound C158A, (6*R)-7-(3,4-dichlorobenzoyl)-6-ethyl-3-[4-(methanesulfonyl)phenyl]-2-[(propan-2-yl)amino]-5,6,7,8-tetrahydropyrido[3,4-d]pyrimidin-4(3H)-one], for which the CC50 at 3 days in the data set “in vitro” (setting [2]) was more than 50 µM. In addition, in data set [1] (setting [3]), the concentration for a half-maximal effect (EC50) was 0.91 µM.
`CC(C)Nc1nc2c(c(=O)n1-c1ccc(-n3cccn3)cc1)C[C@@H](C)N(C(=O)c1ccc(Cl)c(Cl)c1)C2` [Compound C166, (6R)-7-(3,4-dichlorobenzoyl)-6-methyl-2-[(propan-2-yl)amino]-3-[4-(1H-pyrazol-1-yl)phenyl]-5,6,7,8-tetrahydropyrido[3,4-d]pyrimidin-4(3H)-one] yielded a half-maximal cytotoxic concentration (CC50) at 3 days in “in vitro” (setting [2]) of more than 50 µM. Besides, in data set [1] (setting [3]), the EC50 amounted to 0.11 µM.
The like results for `CC(C)Nc1nc2c(c(=O)n1-c1ccnnc1)CCN(C(=O)c1ccc(Cl)c(Cl)c1)C2` [Compound C134, 7-(3,4-dichlorobenzoyl)-2-[(propan-2-yl)amino]-3-(pyridazin-4-yl)-5,6,7,8-tetrahydropyrido[3,4-d]pyrimidin-4(3H)-one] were, in that order, more than 50 µM and 4.39 µM.
The like results for `COc1ccc(CNc2nc3c(c(=O)n2-c2ccc(F)c(C#N)c2)CCN(C(=O)c2ccc(Cl)c(Cl)c2)C3)cc1` [Compound C77, 5-[7-(3,4-dichlorobenzoyl)-2-{[(4-methoxyphenyl)methyl]amino}-4-oxo-5,6,7,8-tetrahydropyrido[3,4-d]pyrimidin-3(4H)-yl]-2-fluorobenzonitrile] were, in that order, more than 50 µM and 1.58 µM.
Compound `CNC(=O)c1ccc(-n2c(N[C@H](c3ccc(OC)cc3)C(C)C)nc3c(c2=O)C[C@@H](C)N(C(=O)c2ccc(Cl)c(Cl)c2)C3)cc1` (single isomer, unassigned) [Compound C422b] came in with a CC50 at 3 days in the data set “in vitro” (setting [4]) of 17.2 µM. In addition, the EC50 in data set [1] (setting [5]) was 0.28 µM.
With `CNC(=O)c1ccc(-n2c(N[C@@H](C)c3ccncc3)nc3c(c2=O)C[C@@H](C)N(C(=O)c2ccc(Cl)c(Cl)c2)C3)cc1` (single isomer, unassigned) [Compound C375b], the 50% cytotoxic concentration (CC50) at 3 days in the data set “in vitro” (setting [2]) is more than 50 µM. Also, the EC50 in data set [1] (setting [3]) stood at 0.62 µM.
The compound `CC[C@H]1Cc2c(nc(NC(C)C)n(-c3ccc(S(C)(=O)=O)cc3)c2=O)CN1C(=O)c1ccc(Cl)c(Cl)c1` (single isomer, unassigned) [Compound C158B, (6*S)-7-(3,4-dichlorobenzoyl)-6-ethyl-3-[4-(methanesulfonyl)phenyl]-2-[(propan-2-yl)amino]-5,6,7,8-tetrahydropyrido[3,4-d]pyrimidin-4(3H)-one] registered a half-maximal cytotoxic concentration (CC50) at 3 days in the data set “in vitro” (setting [2]) of 35.7 µM. The EC50 in data set [1] (setting [3]) is 2.13 µM.
Consider `CNC(=O)c1ccc(-n2c(NC(C)C)nc3c(c2=O)C[C@@H](C)N(C(=O)c2ccc(F)c(C(F)F)c2)C3)cc1` [Compound C634], for which the half-maximal cytotoxic concentration (CC50) at 3 days in the data set “in vitro” (setting [4]) is more than 50 µM. For the same compound, in data set [1] (setting [5]), the half-maximal effective concentration (EC50) was 0.63 µM.
The compound `COC(=O)c1ccn(-c2ccc(-n3c(NC(C)C)nc4c(c3=O)C[C@@H](C)N(C(=O)c3ccc(Cl)c(Cl)c3)C4)cc2)n1` [Compound C267, methyl 1-{4-[(6R)-7-(3,4-dichlorobenzoyl)-6-methyl-4-oxo-2-[(propan-2-yl)amino]-5,6,7,8-tetrahydropyrido[3,4-d]pyrimidin-3(4H)-yl]phenyl}-1H-pyrazole-3-carboxylate] had a half-maximal cytotoxic concentration (CC50) at 3 days in the data set “in vitro” (setting [2]) of more than 50 µM. Moreover, in data set [1] (setting [3]), the EC50 amounted to 0.21 µM.
With `CNC(=O)c1ccc(-n2c(NC(C)C)nc3c(c2=O)C[C@@H](C)N(C(=O)c2cc4c(F)cccc4[nH]2)C3)cc1` [Compound C505], the cytotoxic concentration (CC50) at 3 days in the data set “in vitro” (setting [4]) turned out to be 25.6 µM. Further, the 50% effective concentration (EC50) in data set [1] (setting [5]) came out at 0.02 µM.
`CC(C)Nc1nc2c(c(=O)n1-c1ccc(-c3ncc[nH]3)cc1)C[C@@H](C)N(C(=O)c1ccc(Cl)c(Cl)c1)C2` [Compound C196, (6R)-7-(3,4-dichlorobenzoyl)-3-[4-(1H-imidazol-2-yl)phenyl]-6-methyl-2-[(propan-2-yl)amino]-5,6,7,8-tetrahydropyrido[3,4-d]pyrimidin-4(3H)-one]: the CC50 at 3 days in the data set “in vitro” (setting [2]) was more than 43 µM. In addition, the EC50 in data set [1] (setting [3]) is 0.17 µM.
As to `CNC(=O)c1ccc(-n2c(NC3COC(C4CC4)C3)nc3c(c2=O)C[C@@H](C)N(C(=O)c2ccc(Cl)c(Cl)c2)C3)cc1` (stereo partly shown) [Compound C549], in “in vitro” (setting [4]), the half-maximal cytotoxic concentration (CC50) at 3 days is more than 50 µM. The concentration for a half-maximal effect (EC50) in data set [1] (setting [5]) was found to be 1.22 µM.
`CNC(=O)c1ccc(-n2c(N[C@@H](C)C3CC3)nc3c(c2=O)C[C@@H](C)N(C(=O)c2ccc(Cl)c(C(F)F)c2)C3)cc1` [Compound C699, 4-((R)-7-(4-chloro-3-(difluoromethyl)benzoyl)-2-(((S)-1-cyclopropylethyl)amino)-6-methyl-4-oxo-5,6,7,8-tetrahydropyrido[3,4-d]pyrimidin-3(4H)-yl)-N-methylbenzamide] returned a half-maximal cytotoxic concentration (CC50) at 3 days in the data set “in vitro” (3-days incubation (unmarked values), ATPlite viability) of more than 50 µM. Moreover, in data set [1] (setting [3]), the EC50 turned out to be 0.04 µM.
The compound `O=C(c1ccc(Cl)c(Cl)c1)N1CCc2c(nc(NCc3ccccc3)[nH]c2=O)C1` [Compound C21, 2-(benzylamino)-7-(3,4-dichlorobenzoyl)-5,6,7,8-tetrahydropyrido[3,4-d]pyrimidin-4(3H)-one] had a cytotoxic concentration (CC50) at 4 days in “in vitro” (ATPlite) of 24.7 µM. For the same compound, the EC50 in data set [1] (setting [3]) amounted to 7.51 µM.
In “in vitro” (setting [4]), `CNC(=O)c1ccc(-n2c(NC(C)C(C)(C)C)nc3c(c2=O)C[C@@H](C)N(C(=O)c2ccc(Cl)c(Cl)c2)C3)cc1` (stereo partly shown) [Compound C459] returned a cytotoxic concentration (CC50) at 3 days of 28.6 µM. Further, the concentration giving a half-maximal response (EC50) in data set [1] (setting [5]) came out at 0.24 µM.
Turning to `CC(C)Nc1nc2c(c(=O)n1-c1ccnc(Cl)c1)C[C@@H](C)N(C(=O)c1ccc(Cl)c(Cl)c1)C2` [Compound C656], in the data set “in vitro” (setting [4]), the half-maximal cytotoxic concentration (CC50) at 3 days was more than 50 µM. Moreover, the concentration for a half-maximal effect (EC50) in data set [1] (setting [5]) is 0.26 µM.
The like results for `CNC(=O)c1ccc(-n2c(N[C@@H](C)c3ccc(C(F)(F)F)cc3)nc3c(c2=O)C[C@@H](C)N(C(=O)c2ccc(Cl)c(Cl)c2)C3)cc1` (single isomer, unassigned) [Compound C413b] were, in that order, 8.3 µM and 4.13 µM.
`COc1ccc(CNc2nc3c(c(=O)n2-c2ccn[nH]2)CCN(C(=O)c2ccc(Cl)c(Cl)c2)C3)cc1` [Compound C107, 7-(3,4-dichlorobenzoyl)-2-{[(4-methoxyphenyl)methyl]amino}-3-(1H-pyrazol-5-yl)-5,6,7,8-tetrahydropyrido[3,4-d]pyrimidin-4(3H)-one] registered a 50% cytotoxic concentration (CC50) at 3 days in “in vitro” (setting [2]) of 22.6 µM. Also, the EC50 in data set [1] (setting [3]) was determined as 1.78 µM.
For the compound `CC(C)Nc1nc2c(c(=O)n1-c1ccc(S(C)(=O)=O)cc1)C[C@@H](C)N(C(=O)c1ccc(Cl)c(Cl)c1)C2` [Compound C100A, (6R)-7-(3,4-dichlorobenzoyl)-3-[4-(methanesulfonyl)phenyl]-6-methyl-2-[(propan-2-yl)amino]-5,6,7,8-tetrahydropyrido[3,4-d]pyrimidin-4(3H)-one], the CC50 at 3 days in “in vitro” (setting [2]) was more than 50 µM. For the same compound, in data set [1] (HepG2.117 cells, 3 days of treatment, intracellular HBV DNA by real-time PCR; mean value; read-out: EC50 (μM, mean value)), the concentration for a half-maximal effect (EC50) worked out at 0.27 µM.
As for `CC(C)Nc1nc2c(c(=O)n1-c1ccc(-c3cc[nH]n3)cc1)C[C@@H](C)N(C(=O)c1ccc(Cl)c(Cl)c1)C2` [Compound C241, (6R)-7-(3,4-dichlorobenzoyl)-6-methyl-2-[(propan-2-yl)amino]-3-[4-(1H-pyrazol-3-yl)phenyl]-5,6,7,8-tetrahydropyrido[3,4-d]pyrimidin-4(3H)-one], the half-maximal cytotoxic concentration (CC50) at 3 days in the data set “in vitro” (setting [2]) was 33.1 µM. In data set [1] (setting [3]), the concentration for a half-maximal effect (EC50) is 0.19 µM.
For the compound `CNC(=O)c1ccc(-n2c(NC(C)C)nc3c(c2=O)C[C@@H](C)N(C(=O)c2ccc(Cl)c(Cl)c2)C3)nc1` [Compound C304, 6-[(6R)-7-(3,4-dichlorobenzoyl)-6-methyl-4-oxo-2-[(propan-2-yl)amino]-5,6,7,8-tetrahydropyrido[3,4-d]pyrimidin-3(4H)-yl]-N-methylpyridine-3-carboxamide], in “in vitro” (setting [2]), the cytotoxic concentration (CC50) at 3 days was more than 50 µM. Moreover, the 50% effective concentration (EC50) in data set [1] (setting [3]) is 0.07 µM.

The values above are taken from US20230091047A1 (priority 2019, published 2023).
